Measured values taken from article PMC12974487, “Inhibition of FicD-mediated AMPylation and deAMPylation by isoprenoid diphosphates” (Proceedings of the National Academy of Sciences of the …, 2026).

Experiments:
[1] = system: Glutathione S-transferase (GST); assay: DSF specificity control with GST; type: binding; details: same concentrations as measured for FicD
Description: To ensure specificity of binding to the FicD enzyme, we performed DSF with Glutathione S-transferase (GST) and BiP in the presence of the same increasing metabolite concentrations. […] Like FicD, BiP is an ATP/Mg^2+ dependent protein that could potentially leverage the same binding mode as GPP/FPP. […]
across samples. Extremely low or missing values were floored to metabolite-specific limits of detection. For each dialysis replicate, log₂-transformed abundances were computed, and log₂(fold change) was calculated as the difference between protein and metabolite chambers. Injection replicates were averaged prior to fold-change calculation. Dialysis replicates with missing chamber measurements were excluded. Technical replicates were retained for outlier detection. Metabolites dominated by noise were removed based on comparison of a null model (intercept only) versus a protein-specific model and RMSE > 0.5 across dialysis replicates. Remaining metabolites were classified as “protein signal” and retained for analysis. For each metabolite–protein pair, up to one extreme outlier was removed using a z-score cutoff of 4. Dialysis replicates were then averaged to yield a consensus fold-change per protein–metabolite pair. […]

FicD^WT = target: T1, FicD^WT (Homo sapiens, UniProt Q9BVA6); assay: In vitro deAMPylation of Δ26hBiP^T229A-AMP by FicD^WT (Western blot); type: biochemical; details: for inhibition of deAMPylation activity of FicD^WT: 100 μM metabolite, 5 mM MgCl2; for concentration at which inhibition of deAMPylation started: dose-response Western blot, FicD^WT
T1 construct: soluble ER luminal domain (residues 105 to 458) of wild-type human FicD; 6xHis-Sumo (N, cleaved yes); made in house; host or cells: Rosetta(DE3) E. coli
T1 sequence (Q9BVA6 105-458): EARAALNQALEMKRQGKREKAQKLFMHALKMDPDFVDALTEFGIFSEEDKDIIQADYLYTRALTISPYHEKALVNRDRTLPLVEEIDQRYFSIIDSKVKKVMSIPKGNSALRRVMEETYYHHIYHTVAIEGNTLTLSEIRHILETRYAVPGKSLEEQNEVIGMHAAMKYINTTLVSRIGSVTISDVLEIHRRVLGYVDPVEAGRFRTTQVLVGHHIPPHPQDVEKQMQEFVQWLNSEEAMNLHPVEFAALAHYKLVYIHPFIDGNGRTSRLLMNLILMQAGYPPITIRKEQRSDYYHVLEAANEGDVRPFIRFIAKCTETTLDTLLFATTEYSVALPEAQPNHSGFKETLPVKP
Description: We next sought to assess the effects of FPP, GPP, and isoprenoid analogues on FicD activity. To accurately judge the effects of small molecules on FicD AMPylation activity, we used the ATPase defective BiP^T229A mutant as substrate ([22], [49], [50]). Loss of ATP hydrolysis by the BiP mutant ensures: 1. conformational homogeneity of the BiP protein substrate; 2. lack of BiP competition for the ATP substrate; and 3. no production of ADP, a competitive inhibitor for ATP. In addition, we deleted the first 25 amino acids of BiP for ease with its purification and solubility. […]
For deAMPylation assays with FicD and BiP, Δ26hBiPT229A was in-vitro AMPylated by […]
5mM MgCl2, 500uM ATP, 0.5% CHAPS, 1mM DTT. After one hour of incubation at 30-37C, the entire reaction mix was transferred into an Amicon 0.5mL 50kDa MWCO concentrator (cat no.
7.4/150mM NaCl/10% glycerol/1mM DTT was added to the concentrated AMPylation reaction and then spun down again at 14,000 x g at 4C for 5-10 minutes. This step was repeated four times to buffer exchange AMPylated Δ26hBiPT229A.
Δ104hFicDWT and Δ26hBiPT229A-AMP were combined at a ratio of 1:80 in buffer containing 25mM HEPES pH 7.4, 100mM KCl, 5mM MgCl2, 1mM DTT and the indicated small molecule where applicable. Reactions were incubated at 37C for 1 hour and stopped by the addition EDTA. 5X SDS sample buffer (250mM Tris pH 6.8, 10% Lithium dodecyl sulfate, 50% glycerol, 50mM DTT, 0.05% Bromophenol blue) was then added to the reactions and reactions were heated for 5 minutes at […]

Structure (SMILES) | change in GST melt curves or Tm [1] | inhibition of deAMPylation activity of FicD^WT (FicD^WT) | concentration at which inhibition of deAMPylation started (FicD^WT) [µM] | apparent EC50 of inhibition of deAMPylation (FicD^WT; substrate exceeds FPP by two to three orders of magnitude)
CC(C)=CCC/C(C)=C/CC/C(C)=C/COP(=O)(O)OP(=O)(O)O [FPP, farnesyl-pyrophosphate] | Neither GPP nor FPP elicited a change | inhibited | 1 | low micromolar range
CC(C)=CCC/C(C)=C/COP(=O)(O)OP(=O)(O)O [GPP, geranyl-pyrophosphate] | Neither GPP nor FPP elicited a change | inhibited | 5 | 
